Data as given in patent US20240109880A1 (Insilico Medicine IP Limited, priority 2021, published 2024).
pIC50: −log10 of the molar value. In brackets after ≈: the same amount, converted by molar mass.

Legend:
[1] = Permeability in Caco-2 Assay; format: in vitro ADME; conditions: human, pH 7.4; Caco-2, 2.00 μM, 2 hours, pH 7.40
Protocol: (§1) Permeability of test compounds was determined in Caco-2 Assay. Caco-2 cells purchased from ATCC were seeded onto […] (PET) in 96-well Corning Insert plates at 1×10^5 cells/cm2, and refreshed medium every 4-5 days until to the 21st to 28th day for confluent cell monolayer formation. The transport buffer in the study was HBSS with 10.0 mM HEPES at pH 7.40±0.05. Test compound was tested at 2.00 μM bi-directionally in duplicate. Digoxin was tested at 10.0 μM bi-directionally in duplicate, while nadolol and metoprolol were tested at 2.00 μM in A to B direction in duplicate. Final DMSO concentration was adjusted to less than 1%. The plate was incubated for 2 hours in CO2 incubator at 37±1° C., with 5% CO2 at saturated humidity without shaking. And all samples after mixed with acetonitrile containing internal standard were centrifuged at 3200×g for 10 min. For nadolol and metoprolol, 200 μL supernatant solution was diluted with 600 μL ultra-pure water for LC-MS/MS analysis. For digoxin and test compounds, 200 μL supernatant solution was diluted with 200 μL ultra-pure water for LC-MS/MS analysis. Concentrations of test and control compounds in starting solution, donor solution, and receiver solution were quantified by LC-MS/MS methodologies, using peak area ratio of analyte/internal standard. After transport assay, lucifer yellow rejection assay was applied to determine the Caco-2 cell monolayer integrity.

[2] = system: Caco-2 cells; assay: Permeability in Caco-2 Assay; format: in vitro ADME; conditions: comparison from Table 4 (vs compound 47 or vs PF-9363)
Protocol: as §1

[3] = molecular target: KAT6A (Homo sapiens (Human), UniProt Q92794); assay: KAT6A Biochemical Assay (radiometric 384-well, [3H]-Ac-CoA, biotinylated H4(1-30) peptide); conditions: 5 nM KAT6A enzyme solution (2×), 60 min reaction at room temperature
Chain of KAT6A (Q92794 whole entry): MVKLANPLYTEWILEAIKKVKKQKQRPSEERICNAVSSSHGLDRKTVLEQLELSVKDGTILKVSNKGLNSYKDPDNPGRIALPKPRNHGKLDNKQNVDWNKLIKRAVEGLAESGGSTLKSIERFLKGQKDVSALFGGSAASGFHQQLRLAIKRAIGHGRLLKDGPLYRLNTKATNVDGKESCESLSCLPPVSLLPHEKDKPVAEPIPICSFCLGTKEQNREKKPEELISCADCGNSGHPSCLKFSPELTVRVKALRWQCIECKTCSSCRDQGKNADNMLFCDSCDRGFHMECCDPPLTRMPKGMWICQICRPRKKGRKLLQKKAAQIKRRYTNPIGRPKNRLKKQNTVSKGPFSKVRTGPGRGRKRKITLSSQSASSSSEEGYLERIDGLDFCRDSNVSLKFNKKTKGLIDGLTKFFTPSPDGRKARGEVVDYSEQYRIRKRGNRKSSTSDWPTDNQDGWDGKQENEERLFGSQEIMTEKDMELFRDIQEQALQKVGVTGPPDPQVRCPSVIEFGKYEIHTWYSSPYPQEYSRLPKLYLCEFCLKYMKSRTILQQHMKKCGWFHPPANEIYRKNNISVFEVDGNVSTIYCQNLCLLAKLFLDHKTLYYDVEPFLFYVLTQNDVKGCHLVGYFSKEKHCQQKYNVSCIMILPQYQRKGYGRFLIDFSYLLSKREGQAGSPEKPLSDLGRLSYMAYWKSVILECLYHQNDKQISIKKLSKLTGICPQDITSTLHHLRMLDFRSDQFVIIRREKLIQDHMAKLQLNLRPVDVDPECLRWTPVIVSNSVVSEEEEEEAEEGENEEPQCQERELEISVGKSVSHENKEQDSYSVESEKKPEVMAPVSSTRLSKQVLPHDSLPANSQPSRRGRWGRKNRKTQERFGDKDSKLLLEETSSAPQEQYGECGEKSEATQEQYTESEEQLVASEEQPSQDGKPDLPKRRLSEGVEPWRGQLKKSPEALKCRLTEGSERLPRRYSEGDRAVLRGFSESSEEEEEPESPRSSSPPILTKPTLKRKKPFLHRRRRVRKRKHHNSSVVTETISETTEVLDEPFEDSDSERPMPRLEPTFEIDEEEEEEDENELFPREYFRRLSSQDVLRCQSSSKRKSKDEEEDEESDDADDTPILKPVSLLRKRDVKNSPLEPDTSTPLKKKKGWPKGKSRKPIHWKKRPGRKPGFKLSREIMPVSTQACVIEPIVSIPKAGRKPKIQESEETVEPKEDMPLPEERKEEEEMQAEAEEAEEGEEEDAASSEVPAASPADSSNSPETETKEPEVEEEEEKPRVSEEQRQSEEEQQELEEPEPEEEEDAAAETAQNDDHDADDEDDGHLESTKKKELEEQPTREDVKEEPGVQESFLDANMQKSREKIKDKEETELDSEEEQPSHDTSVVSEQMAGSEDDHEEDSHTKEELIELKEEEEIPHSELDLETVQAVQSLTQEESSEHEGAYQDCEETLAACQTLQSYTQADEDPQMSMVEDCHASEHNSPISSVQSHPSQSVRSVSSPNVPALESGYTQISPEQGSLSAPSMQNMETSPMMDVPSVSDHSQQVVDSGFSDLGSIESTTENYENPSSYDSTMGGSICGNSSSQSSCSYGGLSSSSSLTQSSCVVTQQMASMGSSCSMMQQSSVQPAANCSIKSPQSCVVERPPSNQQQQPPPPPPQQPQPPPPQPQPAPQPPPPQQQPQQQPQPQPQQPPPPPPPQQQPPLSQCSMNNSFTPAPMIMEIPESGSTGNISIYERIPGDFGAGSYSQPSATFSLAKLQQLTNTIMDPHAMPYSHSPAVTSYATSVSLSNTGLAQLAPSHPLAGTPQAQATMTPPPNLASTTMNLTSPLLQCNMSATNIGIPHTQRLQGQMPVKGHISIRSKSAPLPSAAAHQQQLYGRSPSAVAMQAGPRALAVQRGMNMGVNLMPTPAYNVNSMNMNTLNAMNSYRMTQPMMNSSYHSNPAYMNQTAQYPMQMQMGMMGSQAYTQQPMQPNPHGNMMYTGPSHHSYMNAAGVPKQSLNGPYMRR

[4] = Kinetic solubility in 50 mM phosphate buffer (pH 7.4); format: physicochemical
Protocol: 10 μL of 10 mM in DMSO of test and control compounds was added into lower chambers of whatman miniuniprep vials, respectively. 490 μL of 50 mM PB (pH 7.4) was added into lower chambers of the whatman miniuniprep vials, respectively. The solubility samples were vortexted for at least 2 minutes. The miniuniprep vials were shaken on a shaker for 24 hours at room temperature at the speed of 800 rpm and then centrifuged for 20 minutes (eg. 4000 rpm). The miniunipreps were compressed to prepare the filtrates for injection into HPLC system to calculate the concentration with standard curve.

COc1cccc(OC)c1S(=O)(=O)Nc1noc2cc(Oc3nccs3)c3c(c12)OCCC3 [Compound 35, 2,6-dimethoxy-N-(5-(thiazol-2-yloxy)-3,4-dihydro-2H-chromeno[8,7-d]isoxazol-9-yl)benzenesulfonamide]
Papp A→B at 2 h, 2 μM [1]: 8.59 ×10⁻⁶ cm/s | permeability compared with a reference compound [2]: improved permeability | pIC50 [3]: > 8.00 | solubility kinetic at 24 h ([4]; aqueous buffer, kinetic from dmso stock, 50 mM phosphate buffer pH 7.4, 24 hours at room temperature): 165 µM (≈ 80.8 µg/mL) | kinetic solubility compared with the otherwise identical compound having X group as carbon ([4]; comparison from Table 3): improved kinetic solubility
